What all share (experiment): growth of human tumour cells (NCI), 48 h
Assay [1] deals with DMS 273 small cell lung.
In assay [2] the test system is HOP-18 NSCLC.
In assay [3] the test system is KM20L2 colon.
Assay [4] has as its system M19-MEL melanoma.
Assay [5] deals with RXF-631 renal.
Assay [6] has as its system XF 498 CNS.

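Five concentrations, 48 hours, 96-well plates. Abbreviation: GI50, concentration required for 50% inhibition of growth. TGI: concentration producing complete growth inhibition.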

As to `S=c1[nH]nc(COc2ccc(Cl)cc2)o1`, the TGI in assay [1], in assay [2], in assay [3], in assay [4] and in assay [5] was greater than 100 µM in each case.
As to `Cc1cc(Br)cc(C)c1NC(=O)C(=O)CC(=O)c1sc(-n2nc(-c3ccccc3)cc2-c2ccccc2)nc1C`, the TGI in assay [1], in assay [2], in assay [3], in assay [4] and in assay [5] was greater than 100 µM in each case.
For the molecule `CC1=C(C(=O)Nc2ccccc2)C(c2ccc3c(c2)OCO3)C(C(=O)Nc2ccccc2)=C(C)N1`, the TGI in assay [1] was 86.5 µM; in assay [2], greater than 100 µM; in assay [4] it was greater than 100 µM; in assay [5], greater than 100 µM; in assay [6], 85.4 µM.
On to `O=[N+]([O-])c1ccc(-c2ccc(/C=N/n3c(-c4ccc(Cl)cc4)n[nH]c3=S)o2)cc1`, for which the TGI in assay [1] is greater than 63.3 µM; in assay [2] it was greater than 100 µM; in assay [3], greater than 65.8 µM; in assay [4] it was greater than 55.8 µM; in assay [5], greater than 55.5 µM; in assay [6] it was 46.6 µM.
Consider `CC1=C(C(=O)Nc2ccc([N+](=O)[O-])cc2)C(c2ccco2)C(C(=O)Nc2ccc([N+](=O)[O-])cc2)=C(C)N1`, for which the TGI in assay [3] was 60 µM; in assay [4], 77.2 µM; in assay [5], greater than 100 µM; in assay [6] it was greater than 100 µM.
`O/N=C1/C(=C/c2ccc(F)cc2)CCCC1C(NO)c1ccc(F)cc1` (stereo not given): the TGI in assay [1] was greater than 100 µM; in assay [2], 87.3 µM; in assay [3] it was 72.2 µM; in assay [4], greater than 100 µM; in assay [5], greater than 100 µM; in assay [6], greater than 100 µM.
In the case of `CCOC(=O)c1cccc(=O)c(C(=O)OCC)c1`, the TGI in assay [1], in assay [3], in assay [4], in assay [5] and in assay [6] was greater than 100 µM in each case.
For `CC(C)=CC(=O)CC(=O)C(=O)Nc1ccc(C)c(C)c1`, the TGI in assay [1], in assay [3], in assay [4], in assay [5] and in assay [6] was greater than 100 µM throughout.
In the case of `O=C(O)CN(c1ccc(Cl)cc1)S(=O)(=O)c1ccccc1`, the TGI in assay [1], in assay [2], in assay [3], in assay [4], in assay [5] and in assay [6] was greater than 100 µM throughout.
As to `Cn1ncc2cc3c(Nc4ccc(Cl)cc4)cccc3nc21`, the TGI worked out at 34.8 µM in assay [3], 43.9 µM in assay [4], 74.7 µM in assay [5] and 20.5 µM in assay [6].
Regarding `CC(Cl)(/C=C/Cl)C(Cl)/C=C/C(Cl)(CCl)CBr` (stereo not given), the TGI was 17.1 µM in assay [1]; 11.6 µM in assay [2]; 23.9 µM in assay [3]; 13.5 µM in assay [4]; 4.05 µM in assay [5].
For the molecule `O=C1C2=C(c3ccccc31)C(c1ccc(Cl)cc1)N1C(=O)CCSC1=N2` (stereo not given), the TGI in assay [1], in assay [3], in assay [4], in assay [5] and in assay [6] was greater than 100 µM each time.
`CCOC(=O)CCC(NC(=O)c1ccc(N=Cc2nc3cc(C(F)(F)F)ccc3nc2-c2ccccc2)cc1)C(=O)OCC` (stereo not given): the TGI is greater than 100 µM in assay [1]; greater than 100 µM in assay [2]; greater than 100 µM in assay [3]; greater than 100 µM in assay [4]; 11.7 µM in assay [6]. Besides, the GI50 in assay [3] and in assay [4] was greater than 100 µM in each case.
For the molecule `COc1c(OC(C)=O)ccc(/C=C2\N=C(C)OC2=O)c1[N+](=O)[O-]`, the TGI in assay [1], in assay [2], in assay [3], in assay [4] and in assay [5] was greater than 100 µM each time.
Turning to `C/C(=N\N(C)C)c1sc(-n2nc(-c3ccccc3)cc2-c2ccccc2)nc1C`, the TGI in assay [1], in assay [2], in assay [3], in assay [4], in assay [5] and in assay [6] was greater than 100 µM throughout.
`CC(=O)Oc1c(C)n(CCCl)ccc1=O`: the TGI in assay [1], in assay [2], in assay [3], in assay [4], in assay [5] and in assay [6] was greater than 100 µM in each case.
For the molecule `NNC(=O)/C(=C/c1cccc([N+](=O)[O-])c1)NC(=O)c1ccccc1`, the TGI in assay [1], in assay [2], in assay [4], in assay [5] and in assay [6] was greater than 100 µM in each case.
